Test results as given in patent US11339161B2, “Triazolo pyridines as modulators of gamma-secretase” (Boehringer Ingelheim International GmbH, priority 2017, dated 2022).
Where two headings read alike, the source gives them in different places.

Tests used:
ABL1 = ABL1 (Homo sapiens, UniProt P00519); test: Z'-LYTE SelectScreen biochemical kinase assay ABL1
Source text: (§1) Thermo Fisher Scientific SelectScreen™ Biochemical Kinase Profiling Service Z′-LYTE™ Screening Protocol and Assay Conditions Assay Theory
(§2) The […] biochemical assay employs a fluorescence-based, coupled-enzyme format and is based on the differential sensitivity of phosphorylated and non-phosphorylated peptides to proteolytic cleavage. The peptide substrate is labeled with two fluorophores—one at each end—that make up a FRET pair. In the primary reaction, the kinase transfers the gamma-phosphate of ATP to a single tyrosine, serine or threonine residue in a synthetic FRET-peptide. In the secondary reaction, a site-specific protease recognizes and cleaves non-phosphorylated FRET-peptides. Phosphorylation of FRET-peptides suppresses cleavage by the Development Reagent. Cleavage disrupts FRET between the donor (i.e., coumarin) and acceptor (i.e., fluorescein) fluorophores on the FRET-peptide, whereas uncleaved, phosphorylated FRET-peptides maintain FRET. A ratiometric method, which calculates the ratio (Emission Ratio=Coumarin emission (445 nm)/Fluorescein emission (520 nm)) of donor emission to acceptor emission after excitation of the donor fluorophore at 400 nm, is used to quantitate reaction progress, as shown in the equation below. A significant benefit of this ratiometric method for quantitating reaction progress is the elimination of well-to-well variations in FRET-peptide concentration and signal intensities. As a result, the assay yields very high Z′-factor values (>0.7) at a low percent phosphorylation. Both cleaved and uncleaved FRET-peptides contribute to the fluorescence signals and therefore to the Emission Ratio. The extent of phosphorylation of the FRET-peptide can be calculated from the Emission Ratio. The Emission Ratio will remain low if the FRET-peptide is phosphorylated (i.e., no kinase inhibition) and will be high if the FRET-peptide is non-phosphorylated (i.e., kinase inhibition).
(§3) The Test Compounds are screened in 1% DMSO (final) in the well. For 10 point titrations, 3-fold serial dilutions are conducted from the starting concentration of the customer's choosing.
(§4) All Peptide/Kinase Mixtures are diluted to a 2× working concentration in the appropriate Kinase Buffer (see section Kinase Specific Assay Conditions for a complete description).
(§5) All ATP Solutions are diluted to a 4× working concentration in Kinase Buffer (50 mM HEPES pH 7.5, 0.01% BRIJ-35, 10 mM MgCl2, 1 mM EGTA). ATP Km apparent is previously determined using a Z″-LYTE assay.
(§6) The Development Reagent is diluted in Development Buffer (see section Kinase-Specific Assay Conditions—Direct and Cascade for a complete description).
(§7) Bar-coded Corning, low volume NBS, black 384-well plate (Corning Cat. #4514) • 1. 100 nL—100× Test Compound in 100% DMSO • 2. 2.4 μL—Kinase buffer • 3. 5 μL—2× Peptide/Kinase Mixture • 4. 2.5 μL—4×ATP Solution • 5. 30—second plate shake • 6. 60—minute Kinase Reaction incubation at room temperature • 7. 5 μL—Development Reagent Solution • 8. 30—second plate shake • 9. 60—minute Development Reaction incubation at room temperature • 10. Read on fluorescence plate reader and analyze the data Z′-LYTE Assay Controls
(§8) SelectScreen Kinase Profiling Service uses XLfit from IDBS. The dose response curve is curve fit to model number 205 (sigmoidal dose-response model).
The 2×ABL1/Tyr 02 mixture is prepared in 50 mM HEPES pH 7.5, 0.01% BRIJ-35, 10 mM MgCl2, 1 mM EGTA. The final 10 μL Kinase Reaction consists of 0.29-1.26 ng ABL1 and 2 μM Tyr 02 in 50 mM HEPES pH 7.5, 0.01% BRIJ-35, 10 mM MgCl2, 1 mM EGTA. After the 1 hour Kinase Reaction incubation, 5 μL of a 1:128 dilution of Development Reagent A is added.

FGFR2 = FGFR2 (Homo sapiens, UniProt P21802); test: Z'-LYTE SelectScreen biochemical kinase assay FGFR2
Source text: as §1, §2, §3, §4, §5, §6, §7, §8
The 2×FGFR2/Tyr 04 mixture is prepared in 50 mM HEPES pH 7.5, 0.01% BRIJ-35, 10 mM MgCl2, 4 mM MnCl2, 1 mM EGTA, 2 mM DTT. The final 10 μL Kinase Reaction consists of 0.19-1.99 ng FGFR2 and 2 μM Tyr 04 in 50 mM HEPES pH 7.5, 0.01% BRIJ-35, 10 mM MgCl2, 2 mM MnCl2, 1 mM EGTA, 1 mM DTT. After the 1 hour Kinase Reaction incubation, 5 μL of a 1:64 dilution of Development Reagent B is added.

[1] = test system: 15 kinases (ABL1, AURKA, CDK5/p35, CSF1R, FGFR1, FGFR2, FLT4, KDR, LYN B, MAP4K2, MAP4K4, PDGFRA, PTK2, RET, RPS6KB1); test: Z'-LYTE SelectScreen biochemical kinase panel: count of kinases inhibited over all 15 kinases tested; conditions: 10 μmolar compound concentration; [ATP] Km app; out of 15 kinases tested
panel of 15 kinases = test: Z'-LYTE SelectScreen kinase panel: number of kinases with <40% inhibition; format: biochemical; conditions: of 15 kinases tested; 10 μmolar compound; ATP at Km app
kinases = test: Z'-LYTE SelectScreen kinase panel: number of kinases with <40% inhibition out of 15 tested; format: biochemical; conditions: 10 μmolar (10000 nM) compound; [ATP] Km app; 15 kinases tested
[2] = 10 μmolar compound concentration, ATP at Km app, read-out: ABL1 inhibition
[3] = 10 μmolar compound concentration, ATP at Km app, read-out: FGFR2 inhibition
[4] = read-out: % Inhibition mean ABL1
[5] = read-out: % Inhibition mean FGFR2

ABL1, sequence (P00519 whole entry): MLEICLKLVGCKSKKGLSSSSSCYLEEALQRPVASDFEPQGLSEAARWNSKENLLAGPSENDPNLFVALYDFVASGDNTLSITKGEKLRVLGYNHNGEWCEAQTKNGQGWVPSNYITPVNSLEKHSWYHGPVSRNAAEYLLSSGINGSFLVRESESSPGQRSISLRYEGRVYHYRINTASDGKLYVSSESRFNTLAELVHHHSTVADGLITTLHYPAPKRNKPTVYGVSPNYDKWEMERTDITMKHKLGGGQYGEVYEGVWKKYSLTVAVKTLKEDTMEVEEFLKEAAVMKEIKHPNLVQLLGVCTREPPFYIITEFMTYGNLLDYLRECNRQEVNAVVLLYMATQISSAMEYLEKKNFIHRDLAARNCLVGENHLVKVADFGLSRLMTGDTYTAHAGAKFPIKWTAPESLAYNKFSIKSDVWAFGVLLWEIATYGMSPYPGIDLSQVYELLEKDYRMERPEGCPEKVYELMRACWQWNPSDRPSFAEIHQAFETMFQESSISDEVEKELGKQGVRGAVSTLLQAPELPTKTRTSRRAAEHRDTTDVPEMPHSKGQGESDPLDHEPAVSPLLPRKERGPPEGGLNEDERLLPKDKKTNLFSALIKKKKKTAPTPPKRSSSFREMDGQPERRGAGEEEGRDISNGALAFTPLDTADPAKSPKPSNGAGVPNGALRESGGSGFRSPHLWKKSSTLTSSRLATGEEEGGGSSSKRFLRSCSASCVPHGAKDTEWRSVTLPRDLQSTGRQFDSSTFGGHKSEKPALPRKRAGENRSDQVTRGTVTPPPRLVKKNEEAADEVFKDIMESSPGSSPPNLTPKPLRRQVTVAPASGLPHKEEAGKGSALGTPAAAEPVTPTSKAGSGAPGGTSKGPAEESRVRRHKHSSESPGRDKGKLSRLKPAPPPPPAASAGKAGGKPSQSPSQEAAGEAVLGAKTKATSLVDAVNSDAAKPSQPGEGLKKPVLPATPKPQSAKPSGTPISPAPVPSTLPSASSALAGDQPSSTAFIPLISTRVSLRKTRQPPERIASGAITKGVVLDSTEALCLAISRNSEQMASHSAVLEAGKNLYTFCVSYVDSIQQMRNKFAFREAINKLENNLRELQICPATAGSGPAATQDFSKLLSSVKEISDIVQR
FGFR2, sequence (P21802 22-821): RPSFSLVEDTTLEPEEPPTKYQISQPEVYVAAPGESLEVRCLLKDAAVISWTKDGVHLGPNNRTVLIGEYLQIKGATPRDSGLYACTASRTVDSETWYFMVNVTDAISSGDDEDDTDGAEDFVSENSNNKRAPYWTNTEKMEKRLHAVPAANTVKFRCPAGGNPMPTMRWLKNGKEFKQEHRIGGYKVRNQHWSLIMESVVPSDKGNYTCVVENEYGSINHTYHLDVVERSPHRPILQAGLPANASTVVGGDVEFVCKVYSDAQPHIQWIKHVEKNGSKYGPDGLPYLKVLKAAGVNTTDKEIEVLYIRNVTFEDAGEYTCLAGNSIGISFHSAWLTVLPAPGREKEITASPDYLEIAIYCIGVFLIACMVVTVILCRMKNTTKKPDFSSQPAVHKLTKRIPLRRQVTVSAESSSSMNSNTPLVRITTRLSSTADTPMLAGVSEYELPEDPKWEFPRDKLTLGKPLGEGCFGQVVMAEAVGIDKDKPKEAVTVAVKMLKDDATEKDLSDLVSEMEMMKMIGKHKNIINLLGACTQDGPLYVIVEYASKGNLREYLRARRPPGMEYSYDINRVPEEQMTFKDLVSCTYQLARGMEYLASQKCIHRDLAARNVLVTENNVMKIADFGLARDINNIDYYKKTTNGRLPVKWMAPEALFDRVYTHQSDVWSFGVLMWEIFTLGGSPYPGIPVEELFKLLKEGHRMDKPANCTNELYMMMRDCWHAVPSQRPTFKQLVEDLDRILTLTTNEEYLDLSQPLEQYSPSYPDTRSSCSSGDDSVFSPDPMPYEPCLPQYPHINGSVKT

Compound | inhibition at 10 µM (ABL1; [2]) [%] | inhibition at 10 µM (ABL1; read-out: % Inhibition mean) [%] | inhibition at 10 µM (FGFR2; [3]) [%] | inhibition at 10 µM (FGFR2; read-out: % Inhibition mean) [%] | No. of kinases with >80% inhibition [1] | inhibition at 10 µM (ABL1; [4]) [%] | No. of kinases with <40% inhibition (panel of 15 kinases) | inhibition at 10 µM (FGFR2; [5]) [%] | No. of kinases with <40% inhibition (kinases)
CC1(C)C(=O)Nc2ccc(Nc3nc4c(-c5cccc(F)c5)cccn4n3)cc21 [Cpd. 263 in WO09155551, reference compound] | > 80 | 99 | > 80 | 102 | 15/15 | – | – | – | –
Fc1cccc(-c2cccn3nc(Nc4ccc5[nH]cnc5c4)nc23)c1 [Cpd. 293 in WO09155551, reference compound] | > 80 | 97 | > 80 | 90 | 15/15 | – | – | – | –
CC1(C)NC(=O)c2ccc(Nc3nc4c(-c5cccc(F)c5)cccn4n3)cc21 [Cpd. 302 in WO09155551, reference compound] | > 80 | 104 | > 80 | 98 | 15/15 | – | – | – | –
CCn1ncc2c1CCC(Nc1nc3c(-c4cccc(Cl)c4)cccn3n1)C2 (stereo not shown) [Example 59, [8-(3-Chloro-phenyl)-[1,2,4]triazolo[1,5-a]pyridine-2-yl]-(1-ethyl-4,5,6,7-tetrahydro-1H-indazol-5-yl)-amine] | < 40 | – | < 40 | – | – | 19 | 13/15 | 11 | –
CCn1ncc2c1CCC(Nc1nc3c(-c4cnccc4OC)cccn3n1)C2 (stereo not shown) [Example 68, (1-Ethyl-4,5,6,7-tetrahydro-1H-indazol-5-yl)-[8-(4-methoxy-pyridin-3-yl)-[1,2,4]triazolo[1,5-a]pyridine-2-yl]-amine] | < 40 | – | < 40 | – | – | 28 | 11/15 | 28 | –
CCn1ncc2c1CCC(Nc1nc3c(-c4cccnc4OC)cccn3n1)C2 (stereo not shown) [Example 69, (1-Ethyl-4,5,6,7-tetrahydro-1H-indazol-5-yl)-[8-(2-methoxy-pyridin-3-yl)-[1,2,4]triazolo[1,5-a]pyridine-2-yl]-amine] | < 40 | – | < 40 | – | – | 13 | 15/15 | 1 | –
CCn1ncc2c1CCC(Nc1nc3c(-c4cncc(OC)c4)cccn3n1)C2 (stereo not shown) [Example 70, (1-Ethyl-4,5,6,7-tetrahydro-1H-indazol-5-yl)-[8-(5-methoxy-pyridin-3-yl)-[1,2,4]triazolo[1,5-a]pyridine-2-yl]-amine] | < 40 | – | < 40 | – | – | 15 | 11/15 | 12 | –

Continued, values first:

inhibition at 10 µM (ABL1; [2]) [%] | inhibition at 10 µM (ABL1; read-out: % Inhibition mean) [%] | inhibition at 10 µM (FGFR2; [3]) [%] | inhibition at 10 µM (FGFR2; read-out: % Inhibition mean) [%] | No. of kinases with >80% inhibition [1] | inhibition at 10 µM (ABL1; [4]) [%] | No. of kinases with <40% inhibition (panel of 15 kinases) | inhibition at 10 µM (FGFR2; [5]) [%] | No. of kinases with <40% inhibition (kinases) | Compound
< 40 | – | < 40 | – | – | 15 | 12/15 | 16 | – | CCn1ncc2c1CCC(Nc1nc3c(-c4cccnc4)cccn3n1)C2 (stereo not shown) [Example 63, (1-Ethyl-4,5,6,7-tetrahydro-1H-indazol-5-yl)-(8-pyridin-3-yl-[1,2,4]triazolo[1,5-a]pyridine-2-yl)-amine]
< 40 | – | < 40 | – | – | 11 | 14/15 | 30 | – | CCn1ncc2c1CCC(Nc1nc3c(-c4ccc(C)nc4)cccn3n1)C2 (stereo not shown) [Example 67, (1-Ethyl-4,5,6,7-tetrahydro-1H-indazol-5-yl)-[8-(6-methyl-pyridin-3-yl)-[1,2,4]triazolo[1,5-a]pyridine-2-yl]-amine]
< 40 | – | < 40 | – | – | 24 | 11/15 | 27 | – | CCn1ncc2c1CCC(Nc1nc3c(-c4ccc(OC)nc4)cccn3n1)C2 (stereo not shown) [Example 71, (1-Ethyl-4,5,6,7-tetrahydro-1H-indazol-5-yl)-[8-(6-methoxy-pyridin-3-yl)-[1,2,4]triazolo[1,5-a]pyridine-2-yl]-amine]
< 40 | – | < 40 | – | – | 21 | 8/15 | 26 | – | CCn1ncc2c1CCC(Nc1nc3c(-c4cncc(Cl)c4)cccn3n1)C2 (stereo not shown) [Example 73, [8-(5-Chloro-pyridin-3-yl)-[1,2,4]triazolo[1,5-a]pyridine-2-yl]-(1-ethyl-4,5,6,7-tetrahydro-1H-indazol-5-yl)-amine]
< 40 | – | < 40 | – | – | 14 | – | 30 | 14/15 | CCn1ncc2c1CC[C@@H](Nc1nc3c(-c4ccc(F)cc4C)cccn3n1)C2 [Example R-42, (R)-(1-Ethyl-4,5,6,7-tetrahydro-1H-indazol-5-yl)-[8-(4-fluoro-2-methyl-phenyl)-[1,2,4]triazolo[1,5-a]pyridine-2-yl]-amine]
< 40 | – | < 40 | – | – | 3 | 15/15 | 12 | – | CCn1ncc2c1CC[C@@H](Nc1nc3c(-c4ccc(F)c(Cl)c4)cccn3n1)C2 [Example R-61, (R)-[8-(3-Chloro-4-fluoro-phenyl)-[1,2,4]triazolo[1,5-a]pyridine-2-yl]-(1-ethyl-4,5,6,7-tetrahydro-1H-indazol-5-yl)-amine]
< 40 | – | < 40 | – | – | 13 | 15/15 | 13 | – | CCn1ncc2c1CC[C@H](Nc1nc3c(-c4ccc(F)c(Cl)c4)cccn3n1)C2 [Example S-61, (S)-[8-(3-Chloro-4-fluoro-phenyl)-[1,2,4]triazolo[1,5-a]pyridine-2-yl]-(1-ethyl-4,5,6,7-tetrahydro-1H-indazol-5-yl)-amine]
